From patent US20230085307A1, “PYRIDAZINONE COMPOUND AND HERBICIDE” (NISSAN CHEMICAL CORPORATION, priority 2019, published 2023)

What was measured:
[1] = system: lambsquarters; assay: Test Example 5: herbicidal effect by foliage application, plastic box (Table 20, symbol O); assay type: in vivo, lambsquarters (Chenopodium album); conditions: foliage application, 320 g/ha, three weeks after application
How it was run: (§1)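 Plants were sown into sterilized diluvial soil under about 1.5 cm cover and kept in a greenhouse at 25° C. to 30° C. Fourteen days on, foliage received an even spray of the diluted emulsion. Herbicidal or crop effect was judged three weeks afterwards.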

[2] = system: southern crabgrass; assay: Test Example 5: herbicidal effect by foliage application, plastic box (Table 20, symbol F); assay type: in vivo, southern crabgrass (Digitaria ciliaris); conditions: foliage application, 320 g/ha, three weeks after application
How it was run: as §1

[3] = system: lambsquarters; assay: Test Example 4: herbicidal effect by soil treatment (Table 19, symbol O); assay type: in vivo, lambsquarters (Chenopodium album); conditions: amount of applied herbicide 320 g/ha
How it was run: (§2)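 In this soil treatment, the formulated compound reached the seeds only through the soil: seeds were buried about 1.5 cm deep in sterilized diluvial soil, then the diluted emulsion was sprayed over the surface. After three weeks at 25° C. to 30° C. in a greenhouse, effects were graded on criteria from an earlier test.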

[4] = system: wild oat; assay: Test Example 5: herbicidal effect by foliage application, plastic box (Table 20, symbol I); assay type: in vivo, wild oat (Avena fatua); conditions: foliage application, 320 g/ha, three weeks after application
How it was run: as §1

[5] = system: persian speedwell; assay: Test Example 5: herbicidal effect by foliage application, plastic box (Table 20, symbol R); assay type: in vivo, Persian speedwell (Veronica persica); conditions: foliage application, 320 g/ha, three weeks after application
How it was run: as §1

[6] = system: barnyard grass; assay: Test Example 3: herbicidal effect by foliage application, Wagner pot (Table 18, symbol H); assay type: in vivo, barnyard grass (Echinochloa crus-galli); conditions: 320 g/ha
How it was run: (§3)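 Plants were sown in alluvial soil held under 0.1–0.5 cm standing water and grown 14 days in a greenhouse at 25–30 °C. An emulsifiable formulation, water-diluted to the set dose, was then sprayed onto the foliage, and effects were scored three weeks later using previously defined criteria.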

[7] = system: green foxtail; assay: Test Example 4: herbicidal effect by soil treatment (Table 19, symbol G); assay type: in vivo, green foxtail (Setaria viridis); conditions: amount of applied herbicide 320 g/ha
How it was run: as §2

[8] = system: blackgrass; assay: Test Example 5: herbicidal effect by foliage application, plastic box (Table 20, symbol J); assay type: in vivo, blackgrass (Alopecurus myosuroides); conditions: foliage application, 320 g/ha, three weeks after application
How it was run: as §1

[9] = system: false cleavers; assay: Test Example 4: herbicidal effect by soil treatment (Table 19, symbol Q); assay type: in vivo, false cleavers (Galium spurium); conditions: amount of applied herbicide 320 g/ha
How it was run: as §2

[10] = system: persian speedwell; assay: Test Example 4: herbicidal effect by soil treatment (Table 19, symbol R); assay type: in vivo, Persian speedwell (Veronica persica); conditions: amount of applied herbicide 320 g/ha
How it was run: as §2

[11] = system: chickweed; assay: Test Example 5: herbicidal effect by foliage application, plastic box (Table 20, symbol P); assay type: in vivo, common chickweed (Stellaria media); conditions: foliage application, 320 g/ha, three weeks after application
How it was run: as §1

[12] = system: velvetleaf; assay: Test Example 5: herbicidal effect by foliage application, plastic box (Table 20, symbol M); assay type: in vivo, velvetleaf (Abutilon theophrasti); conditions: foliage application, 320 g/ha, three weeks after application
How it was run: as §1

[13] = system: barnyard grass; assay: Test Example 5: herbicidal effect by foliage application, plastic box (Table 20, symbol H); assay type: in vivo, barnyard grass (Echinochloa crus-galli); conditions: foliage application, 320 g/ha, three weeks after application
How it was run: as §1

[14] = system: chickweed; assay: Test Example 4: herbicidal effect by soil treatment (Table 19, symbol P); assay type: in vivo, common chickweed (Stellaria media); conditions: amount of applied herbicide 320 g/ha
How it was run: as §2

[15] = system: redroot pigweed; assay: Test Example 5: herbicidal effect by foliage application, plastic box (Table 20, symbol N); assay type: in vivo, redroot pigweed (Amaranthus retroflexus); conditions: foliage application, 320 g/ha, three weeks after application
How it was run: as §1

[16] = system: Italian ryegrass; assay: Test Example 4: herbicidal effect by soil treatment (Table 19, symbol K); assay type: in vivo, Italian ryegrass (Lolium multiflorum); conditions: amount of applied herbicide 320 g/ha
How it was run: as §2

[17] = system: velvetleaf; assay: Test Example 4: herbicidal effect by soil treatment (Table 19, symbol M); assay type: in vivo, velvetleaf (Abutilon theophrasti); conditions: amount of applied herbicide 320 g/ha
How it was run: as §2

[18] = system: late watergrass; assay: Test Example 1: herbicidal activity, application before weed generation under submerged conditions (Table 16, symbol A); assay type: in vivo, late watergrass (Echinochloa oryzicola); conditions: amount of applied herbicide 320 g/ha
How it was run: (§4)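 Submerged Wagner pots (alluvial soil, 4 cm water) sown with weed seeds and planted with 2.5-leaf rice seedlings; emulsifiable concentrate diluted in water applied to water surface on sowing day. Held in greenhouse at 25-30 °C; injury scored 0-5 by herbicidal rate after three weeks.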

[19] = system: southern crabgrass; assay: Test Example 4: herbicidal effect by soil treatment (Table 19, symbol F); assay type: in vivo, southern crabgrass (Digitaria ciliaris); conditions: amount of applied herbicide 320 g/ha
How it was run: as §2

[20] = system: barnyard grass; assay: Test Example 4: herbicidal effect by soil treatment (Table 19, symbol H); assay type: in vivo, barnyard grass (Echinochloa crus-galli); conditions: amount of applied herbicide 320 g/ha
How it was run: as §2

[21] = system: false cleavers; assay: Test Example 5: herbicidal effect by foliage application, plastic box (Table 20, symbol Q); assay type: in vivo, false cleavers (Galium spurium); conditions: foliage application, 320 g/ha, three weeks after application
How it was run: as §1

[22] = system: redroot pigweed; assay: Test Example 4: herbicidal effect by soil treatment (Table 19, symbol N); assay type: in vivo, redroot pigweed (Amaranthus retroflexus); conditions: amount of applied herbicide 320 g/ha
How it was run: as §2

[23] = system: oval-leafed pondweed; assay: Test Example 1: herbicidal activity, application before weed generation under submerged conditions (Table 16, symbol C); assay type: in vivo, oval-leafed pondweed (Monochoria vaginalis); conditions: amount of applied herbicide 320 g/ha
How it was run: as §4

[24] = system: windgrass; assay: Test Example 4: herbicidal effect by soil treatment (Table 19, symbol L); assay type: in vivo, windgrass (Apera spica-venti); conditions: amount of applied herbicide 320 g/ha
How it was run: as §2

[25] = system: blackgrass; assay: Test Example 4: herbicidal effect by soil treatment (Table 19, symbol J); assay type: in vivo, blackgrass (Alopecurus myosuroides); conditions: amount of applied herbicide 320 g/ha
How it was run: as §2

[26] = system: Chinese sprangletop; assay: Test Example 3: herbicidal effect by foliage application, Wagner pot (Table 18, symbol D); assay type: in vivo, chinese sprangletop (Leptochloa chinensis); conditions: 320 g/ha
How it was run: as §3

[27] = system: Japanese bulrush; assay: Test Example 1: herbicidal activity, application before weed generation under submerged conditions (Table 16, symbol B); assay type: in vivo, Japanese bulrush (Schoenoplectus juncoides); conditions: amount of applied herbicide 320 g/ha
How it was run: as §4

[28] = system: windgrass; assay: Test Example 5: herbicidal effect by foliage application, plastic box (Table 20, symbol L); assay type: in vivo, windgrass (Apera spica-venti); conditions: foliage application, 320 g/ha, three weeks after application
How it was run: as §1

[29] = system: Italian ryegrass; assay: Test Example 5: herbicidal effect by foliage application, plastic box (Table 20, symbol K); assay type: in vivo, Italian ryegrass (Lolium multiflorum); conditions: foliage application, 320 g/ha, three weeks after application
How it was run: as §1

[30] = system: rice flat sedge; assay: Test Example 3: herbicidal effect by foliage application, Wagner pot (Table 18, symbol E); assay type: in vivo, rice flat sedge (Cyperus iria); conditions: 320 g/ha
How it was run: as §3

[31] = system: wild oat; assay: Test Example 4: herbicidal effect by soil treatment (Table 19, symbol I); assay type: in vivo, wild oat (Avena fatua); conditions: amount of applied herbicide 320 g/ha
How it was run: as §2

[32] = system: green foxtail; assay: Test Example 5: herbicidal effect by foliage application, plastic box (Table 20, symbol G); assay type: in vivo, green foxtail (Setaria viridis); conditions: foliage application, 320 g/ha, three weeks after application
How it was run: as §1

Structure (SMILES): Cc1ccc2c(-c3c(O)c(C)nn(C)c3=O)c(-c3ccc4c(c3)OCCO4)sc2c1 [3-059]
- O: lambsquarters, herbicidal effect grade [1]: 0 (Herbicidal rate of 5% or less (almost no effect))
- F: southern crabgrass, herbicidal effect grade [2]: 0 (Herbicidal rate of 5% or less (almost no effect))
- O: lambsquarters, herbicidal effect grade [3]: 0 (Herbicidal rate of 5% or less (almost no effect))
- I: wild oat, herbicidal effect grade [4]: 0 (Herbicidal rate of 5% or less (almost no effect))
- R: persian speedwell, herbicidal effect grade [5]: 5 (Herbicidal rate of 90% or more (almost completely withered))
- herbicidal effect on barnyard grass (H) [6]: 4 (Herbicidal rate of 70% or more and less than 90%)
- G: green foxtail, herbicidal effect grade [7]: 0 (Herbicidal rate of 5% or less (almost no effect))
- J: blackgrass, herbicidal effect grade [8]: 0 (Herbicidal rate of 5% or less (almost no effect))
- Q: false cleavers, herbicidal effect grade [9]: 0 (Herbicidal rate of 5% or less (almost no effect))
- R: persian speedwell, herbicidal effect grade [10]: 5 (Herbicidal rate of 90% or more (almost completely withered))
- P: chickweed, herbicidal effect grade [11]: 5 (Herbicidal rate of 90% or more (almost completely withered))
- M: velvetleaf, herbicidal effect grade [12]: 0 (Herbicidal rate of 5% or less (almost no effect))
- H: barnyard grass, herbicidal effect grade [13]: 0 (Herbicidal rate of 5% or less (almost no effect))
- P: chickweed, herbicidal effect grade [14]: 0 (Herbicidal rate of 5% or less (almost no effect))
- N: redroot pigweed, herbicidal effect grade [15]: 0 (Herbicidal rate of 5% or less (almost no effect))
- K: Italian ryegrass, herbicidal effect grade [16]: 0 (Herbicidal rate of 5% or less (almost no effect))
- M: velvetleaf, herbicidal effect grade [17]: 0 (Herbicidal rate of 5% or less (almost no effect))
- Herbicidal effect, A: late watergrass [18]: 2 (Herbicidal rate of 20% or more and less than 40%)
- F: southern crabgrass, herbicidal effect grade [19]: 0 (Herbicidal rate of 5% or less (almost no effect))
- H: barnyard grass, herbicidal effect grade [20]: 0 (Herbicidal rate of 5% or less (almost no effect))
- Q: false cleavers, herbicidal effect grade [21]: 2 (Herbicidal rate of 20% or more and less than 40%)
- N: redroot pigweed, herbicidal effect grade [22]: 0 (Herbicidal rate of 5% or less (almost no effect))
- Herbicidal effect, C: oval-leafed pondweed [23]: 2 (Herbicidal rate of 20% or more and less than 40%)
- L: windgrass, herbicidal effect grade [24]: 0 (Herbicidal rate of 5% or less (almost no effect))
- J: blackgrass, herbicidal effect grade [25]: 0 (Herbicidal rate of 5% or less (almost no effect))
- herbicidal effect on Chinese sprangletop (D) [26]: 0 (Herbicidal rate of 5% or less (almost no effect))
- Herbicidal effect, B: Japanese bulrush [27]: 1 (Herbicidal rate of 5% or more and less than 20%)
- L: windgrass, herbicidal effect grade [28]: 0 (Herbicidal rate of 5% or less (almost no effect))
- K: Italian ryegrass, herbicidal effect grade [29]: 4 (Herbicidal rate of 70% or more and less than 90%)
- herbicidal effect on rice flat sedge (E) [30]: 4 (Herbicidal rate of 70% or more and less than 90%)
- I: wild oat, herbicidal effect grade [31]: 0 (Herbicidal rate of 5% or less (almost no effect))
- G: green foxtail, herbicidal effect grade [32]: 0 (Herbicidal rate of 5% or less (almost no effect))
